# Data: ChEMBL document CHEMBL1914429, “Potent and selective 2-naphthylsulfonamide substituted hydroxamic acid inhibitors of matrix metalloproteinase-13” (Bioorg Med Chem Lett, 2011)
# Tests used:
# [1] = biological target: 72 kDa type IV collagenase (Homo sapiens, UniProt P08253)
# [2] = Oral bioavailability in rat at 5 mg/kg; format: ADME, organism-based; settings: in vivo
# [3] = Clearance in rat at 5 mg/kg, po and 1 mg/kg, iv; format: ADME, organism-based; settings: in vivo
# [4] = Half life in rat at 5 mg/kg, po and 1 mg/kg, iv; format: ADME, organism-based; settings: in vivo
# [5] = AUC in rat at 5 mg/kg, po; format: ADME, organism-based; parameters: dose 5 mg/kg, route oral; settings: plasma
# Chain of 72 kDa type IV collagenase (P08253 whole entry): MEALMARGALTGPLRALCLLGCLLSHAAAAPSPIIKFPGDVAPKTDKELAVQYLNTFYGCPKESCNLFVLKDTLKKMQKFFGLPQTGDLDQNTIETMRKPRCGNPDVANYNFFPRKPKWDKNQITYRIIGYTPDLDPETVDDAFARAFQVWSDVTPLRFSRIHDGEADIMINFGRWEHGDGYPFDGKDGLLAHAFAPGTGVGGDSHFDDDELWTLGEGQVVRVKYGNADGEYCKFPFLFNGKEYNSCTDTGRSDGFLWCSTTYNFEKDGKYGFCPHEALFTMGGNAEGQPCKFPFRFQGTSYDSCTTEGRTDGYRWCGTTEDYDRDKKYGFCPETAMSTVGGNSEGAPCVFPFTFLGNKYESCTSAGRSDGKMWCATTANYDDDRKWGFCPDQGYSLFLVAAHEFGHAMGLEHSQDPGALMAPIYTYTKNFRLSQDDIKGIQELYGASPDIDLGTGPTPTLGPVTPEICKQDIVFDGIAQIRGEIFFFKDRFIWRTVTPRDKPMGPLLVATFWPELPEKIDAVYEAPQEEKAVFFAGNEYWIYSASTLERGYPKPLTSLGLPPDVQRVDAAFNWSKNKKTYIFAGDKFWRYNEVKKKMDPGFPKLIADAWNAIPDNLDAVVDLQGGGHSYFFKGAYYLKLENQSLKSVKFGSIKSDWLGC
IC50 [1],bioavailability [2],clearance [3],half-life [4],AUC [5],SMILES
–,23.8%,40 mL/min/kg,5.7 h,1.5 µM·h,CC(C)CCN([C@@H](C(=O)NO)C(C)C)S(=O)(=O)c1ccc2ccccc2c1
–,–,122 mL/min/kg,–,0.32 µM·h,CC(C)[C@H](C(=O)NO)N(Cc1ccncc1)S(=O)(=O)c1ccc2ccccc2c1
–,–,107 mL/min/kg,–,0.55 µM·h,CC(C)[C@H](C(=O)NO)N(Cc1cccnc1)S(=O)(=O)c1ccc2ccccc2c1
–,–,26.7 mL/min/kg,–,7.2 µM·h,CC(C)CCN([C@@H](C(=O)NO)C(C)(C)C)S(=O)(=O)c1ccc2ccccc2c1
–,–,55 mL/min/kg,–,3.1 µM·h,CC(C)CCN([C@@H](C(=O)NO)C(C)O)S(=O)(=O)c1ccc2ccccc2c1 (stereo not given in full)
30100 nM,–,–,–,–,COc1ccc(S(=O)(=O)N(CCC(C)C)[C@@H](C(=O)NO)C(C)C)cc1OC

# The next lines start with the compound.
SMILES,IC50 [1],bioavailability [2],clearance [3],half-life [4],AUC [5]
CC(C)CCN([C@@H](C(=O)NO)C(C)C)S(=O)(=O)c1ccc2c(c1)OCCO2,3 nM,–,–,–,–
CC(C)CN([C@@H](C(=O)NO)C(C)C)S(=O)(=O)c1ccc2ccccc2c1,308 nM,–,–,–,–
CC(C)[C@H](C(=O)NO)N(CCc1ccccc1)S(=O)(=O)c1ccc2ccccc2c1,–,–,55 mL/min/kg,–,0.45 µM·h
CC(C)[C@H](C(=O)NO)N(CCN(C)C)S(=O)(=O)c1ccc2ccccc2c1,–,–,233 mL/min/kg,–,0.27 µM·h
CC(C)CCN([C@H](CO)C(=O)NO)S(=O)(=O)c1ccc2ccccc2c1,–,–,45 mL/min/kg,–,2.4 µM·h
CC(C)CCN([C@@H](C(=O)NO)C(C)C)S(=O)(=O)c1ccc2ccccc2n1,2050 nM,–,91.7 mL/min/kg,–,0.13 µM·h
CC(C)CCN([C@@H](C(=O)NO)C(C)C)S(=O)(=O)c1ccc2ncccc2c1,–,–,18.3 mL/min/kg,–,4.6 µM·h
CC(C)CCN([C@@H](C(=O)NO)C(C)C)S(=O)(=O)c1ccc2sccc2c1,16 nM,–,118 mL/min/kg,–,1.5 µM·h
CC(C)CCN([C@@H](C(=O)NO)C(C)C)S(=O)(=O)c1ccc2c(c1)CCO2,10 nM,–,–,–,–
